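Five concentrations, 48 hours, 96-well plates. The concentration for 50% growth inhibition is given as GI50. TGI denotes the concentration required for complete inhibition of growth.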
Columns and labels:
Test in all cases: NCI anticancer screen, dose series, 48 h
NCI-H23 lung = tested on: NCI-H23 lung
NCI-H460 lung = tested on: NCI-H460 lung
NCI-H522 lung = tested on: NCI-H522 lung
NCI/ADR-RES ovarian = tested on: NCI/ADR-RES ovarian
OVCAR-3 ovarian = tested on: OVCAR-3 ovarian
OVCAR-4 ovarian = tested on: OVCAR-4 ovarian
OVCAR-5 ovarian = tested on: OVCAR-5 ovarian
OVCAR-8 ovarian = tested on: OVCAR-8 ovarian
PC-3 prostate = tested on: PC-3 prostate
RPMI-8226 leukemia = tested on: RPMI-8226 leukemia
RXF 393 renal = tested on: RXF 393 renal
SF-268 CNS = tested on: SF-268 CNS
SF-295 CNS = tested on: SF-295 CNS
SF-539 CNS = tested on: SF-539 CNS
SK-MEL-2 melanoma = tested on: SK-MEL-2 melanoma
SK-MEL-28 melanoma = tested on: SK-MEL-28 melanoma
SK-MEL-5 melanoma = tested on: SK-MEL-5 melanoma
SK-OV-3 ovarian = tested on: SK-OV-3 ovarian
SN12C renal = tested on: SN12C renal
SNB-19 CNS = tested on: SNB-19 CNS
SNB-75 CNS = tested on: SNB-75 CNS
SR leukemia = tested on: SR leukemia
SW-620 colon = tested on: SW-620 colon
T-47D breast = tested on: T-47D breast
TK-10 renal = tested on: TK-10 renal
U251 CNS = tested on: U251 CNS
UACC-257 melanoma = tested on: UACC-257 melanoma
UACC-62 melanoma = tested on: UACC-62 melanoma
UO-31 renal = tested on: UO-31 renal

CN=C1NC(=O)/C(=C/c2ccc3ncccc3c2)S1
TGI (NCI-H23 lung): > 25 µM
GI50 (NCI-H460 lung): 7.79 µM
TGI (NCI-H460 lung): > 25 µM
GI50 (NCI-H522 lung): 3.28 µM
TGI (NCI-H522 lung): > 25 µM
GI50 (NCI/ADR-RES ovarian): 13.9 µM
TGI (NCI/ADR-RES ovarian): > 25 µM
GI50 (OVCAR-3 ovarian): 9.11 µM
TGI (OVCAR-3 ovarian): > 25 µM
GI50 (OVCAR-4 ovarian): 10.2 µM
TGI (OVCAR-4 ovarian): > 25 µM
GI50 (OVCAR-5 ovarian): 9.52 µM
TGI (OVCAR-5 ovarian): > 25 µM
GI50 (OVCAR-8 ovarian): 7.73 µM
TGI (OVCAR-8 ovarian): > 25 µM
GI50 (PC-3 prostate): 13.8 µM
TGI (PC-3 prostate): > 25 µM
GI50 (RPMI-8226 leukemia): 12.1 µM
TGI (RPMI-8226 leukemia): > 25 µM
GI50 (RXF 393 renal): 8.08 µM
TGI (RXF 393 renal): > 25 µM
GI50 (SF-268 CNS): 10.7 µM
TGI (SF-268 CNS): > 25 µM
GI50 (SF-295 CNS): 7.97 µM
TGI (SF-295 CNS): > 25 µM
GI50 (SF-539 CNS): 5.88 µM
TGI (SF-539 CNS): > 25 µM
GI50 (SK-MEL-2 melanoma): 5.42 µM
TGI (SK-MEL-2 melanoma): 14.4 µM
GI50 (SK-MEL-28 melanoma): 10.5 µM
TGI (SK-MEL-28 melanoma): > 25 µM
GI50 (SK-MEL-5 melanoma): 7.44 µM
TGI (SK-MEL-5 melanoma): > 20.1 µM
GI50 (SK-OV-3 ovarian): 7.76 µM
TGI (SK-OV-3 ovarian): 24.8 µM
GI50 (SN12C renal): 7.7 µM
TGI (SN12C renal): > 25 µM
GI50 (SNB-19 CNS): 9.5 µM
TGI (SNB-19 CNS): > 25 µM
GI50 (SNB-75 CNS): 3.8 µM
TGI (SNB-75 CNS): > 21.2 µM
GI50 (SR leukemia): 2.14 µM
TGI (SR leukemia): 16.7 µM
GI50 (SW-620 colon): 8.41 µM
TGI (SW-620 colon): > 25 µM
GI50 (T-47D breast): 5.24 µM
TGI (T-47D breast): 24.4 µM
GI50 (TK-10 renal): 6.02 µM
TGI (TK-10 renal): > 25 µM
GI50 (U251 CNS): 5.19 µM
TGI (U251 CNS): > 25 µM
GI50 (UACC-257 melanoma): 7.18 µM
TGI (UACC-257 melanoma): > 25 µM
GI50 (UACC-62 melanoma): 8.31 µM
TGI (UACC-62 melanoma): > 25 µM
GI50 (UO-31 renal): 5.29 µM
TGI (UO-31 renal): > 25 µM

From PubChem BioAssay (NCI)
